Where two headings read alike, the source gives them in different places.
What was measured:
Assay type in all cases: cell-based, human
[1] = tested on: MCF-7 Breast Cancer Cell Line; assay: MTT cytotoxicity assay, transfected MCF-7 cells plus chemotherapeutic drug; details: for sensitivity to drug of prohibitin siRNA treated cells: MCF-7, FIGS. 15A-15H; for EC50 / fold change of EC50, Prohibitin vs Control / change in sensitivity to the drug, Prohibitin vs Control: MCF-7 cells, Table 9; for fold change of EC50, Prohibitin vs Control: direction IS/IR in same cell (E42)
Description: (§1) For a typical siRNA transfection, 1 nmole of the annealed siRNA duplex was mixed with 1.4 ml of Opti-MEM reagent (Invitrogen). In another tube, […] of Oligofectamine reagent (Invitrogen, Carlsbad, Calif.) was mixed with […] of Opti-MEM. The two solutions were combined and mixed gently by inversion and incubated for 20 min. at RT. The resulting solution was added to the cultured cells drop by drop in a 10 cm dish (cells are approximately 40-50% confluent). The next day the transfected cells were trypsinized and seeded in 6 or 96-well plates and further incubated for the indicated amount of time (assay dependent) before further analysis.
(§2) Cell survival was determined using the MTT cytotoxicity assay (see, e.g., Tokuyama et al. (2005) Anticancer Res. 25(1A): 17-22). RNA-transfected cells were seeded in triplicate into 96-well plates at 5×10^3 cells/well 48 hrs post-transfection. The cells were incubated for an additional 16 to 24 hrs before they were exposed to increasing concentrations of cytotoxic drugs. Doxorubicin (adriamycin), cisplatinum, taxol, vinblastin, vincristin, and mitoxantrone were all purchased from Sigma Corp. (St. Louis, Mo.). […] Appropriate dilutions were made in the respective media for each cell line. Following addition of drugs, incubation was continued for an additional 72 hrs. […] of MTT dye (5 mg/ml) were added into each well and the plate was further incubated at 37° C. for 4 hrs. The dye was solubilized with 10% Triton X-100, 0.01 N HCl and further incubated at 37° C. in the dark for 30 min. Cell viability was determined by measure of absorption at 570 nm in a Wallac multiwell plate reader (PerkinElmer, Inc., Boston, Mass.). The averages of triplicate wells were plotted using the Prism software (GraphPad Software, Inc., San Diego, Calif.).
Cell survival was determined as described in Example 3 above.

[2] = tested on: MDA Breast Cancer Cell Line; assay: MTT cytotoxicity assay, transfected MDA cells plus chemotherapeutic drug; details: for IC50: Homo sapiens; for IC50 / fold change of EC50, Prohibitin vs Control / EC50: MDA cells; for sensitivity to drug of prohibitin siRNA treated cells compared to controls / sensitivity to drug of prohibitin siRNA treated cells compared to mock-treated cells / sensitivity to drug of prohibitin siRNA treated cells compared to mock controls: MDA; for sensitivity to drug of prohibitin siRNA treated cells compared to mock-treated cells: FIG. 9A-9H
Description: as §1
as §2, with “RNA-transfected” for “Cell survival was determined using the MTT cytotoxicity assay (see, e.g., Tokuyama et al. (2005) Anticancer Res. 25(1A): 17-22). RNA-transfected”, “drugs.” for “drugs. Doxorubicin (adriamycin), cisplatinum, taxol, vinblastin, vincristin, and mitoxantrone were all purchased from Sigma Corp. (St. Louis, Mo.).”

[3] = tested on: SKOV3 Ovarian Cancer Cell Line; assay: MTT cytotoxicity assay, transfected SKOV3 cells plus chemotherapeutic drug; details: for IC50: Homo sapiens, SK-OV-3, SKOV3 cells; for EC50 / fold change of EC50, Prohibitin vs Control: SKOV3 cells; for fold change of EC50, Prohibitin vs Control: direction IS/IR in same cell (E54)
Description: as §1
as §2, with “RNA-transfected” for “Cell survival was determined using the MTT cytotoxicity assay (see, e.g., Tokuyama et al. (2005) Anticancer Res. 25(1A): 17-22). RNA-transfected”, “drugs.” for “drugs. Doxorubicin (adriamycin), cisplatinum, taxol, vinblastin, vincristin, and mitoxantrone were all purchased from Sigma Corp. (St. Louis, Mo.).”
Each table summarizes the results of an individual experiment performed in triplicate.

[4] = prohibitin (siRNA) transfected, read-out: EC50, Prohibitin
[5] = mock-transfected control, Table 3 experiment, read-out: EC50, Control
[6] = mock-transfected control, Table 4 experiment, read-out: EC50, Control
[7] = mock-transfected control, Table 7 experiment, read-out: EC50, Control
[8] = mock-transfected control, Table 8 experiment, read-out: EC50, Control
[9] = prohibitin (siRNA) transfected, Table 3 experiment, read-out: EC50, Prohibitin
[10] = prohibitin (siRNA) transfected, Table 4 experiment, read-out: EC50, Prohibitin
[11] = prohibitin (siRNA) transfected, Table 7 experiment, read-out: EC50, Prohibitin
[12] = prohibitin (siRNA) transfected, Table 8 experiment, read-out: EC50, Prohibitin
[13] = Table 4 experiment, direction IS/IR in same cell (E12)
[14] = mock-transfected control, Table 10 experiment, read-out: EC50, Control
[15] = mock-transfected control, Table 11 experiment, read-out: EC50, Control
[16] = prohibitin (siRNA) transfected, Table 10 experiment, read-out: EC50, Prohibitin
[17] = prohibitin (siRNA) transfected, Table 11 experiment, read-out: EC50, Prohibitin
[18] = Table 3 experiment, direction IS/IR in same cell (E6)
[19] = Table 8 experiment, direction IS/IR in same cell (E36)
[20] = mock-transfected control, Table 6 experiment, read-out: EC50, Control
[21] = prohibitin (siRNA) transfected, Table 6 experiment, read-out: EC50, Prohibitin
[22] = Table 6 experiment, direction IS/IR in same cell (E24)
[23] = Table 7 experiment, direction IS/IR in same cell (E30)
[24] = mock-transfected control, Table 5 experiment, read-out: EC50, Control
[25] = prohibitin (siRNA) transfected, Table 5 experiment, read-out: EC50, Prohibitin

Row | Compound | sensitivity to drug of prohibitin siRNA treated cells [1] | EC50 [1, 4] [µM] | fold change of EC50, Prohibitin vs Control [1] [x] | IC50 [2, 5] [µM] | IC50 [2, 6] [µM] | IC50 [2, 7] [µM] | IC50 [2, 8] [µM] | fold change of EC50, Prohibitin vs Control [2, 13] [x] | sensitivity to drug of prohibitin siRNA treated cells compared to controls ([2]; FIGS. 10A-10H) | IC50 [3, 14] [nM] | IC50 [3, 15] [nM] | EC50 [3, 16] [µM] | EC50 [3, 17] [µM] | EC50 [2, 9] [µM] | EC50 [2, 10] [µM] | EC50 [2, 12] [µM] | fold change of EC50, Prohibitin vs Control [2, 18] [x] | sensitivity to drug of prohibitin siRNA treated cells compared to mock-treated cells [2] | fold change of EC50, Prohibitin vs Control ([3]; Table 11 experiment) [x] | sensitivity to drug of prohibitin siRNA treated cells compared to mock controls ([2]; FIGS. 13A-13H) | also measured
1 | CC(=O)O[C@@]12CO[C@@H]1C[C@H](O)[C@@]1(C)C(=O)[C@H](O)C3=C(C)[C@@H](OC(=O)[C@H](O)[C@@H](NC(=O)OC(C)(C)C)c4ccccc4)C[C@@](O)([C@@H](OC(=O)c4ccccc4)[C@H]21)C3(C)C [Docetaxel] | more sensitive | 0.00534 | 13.8 | – | – | – | – | – | – | – | – | – | – | – | – | – | – | – | – | – | –
2 | COc1cc([C@@H]2c3cc4c(cc3[C@@H](O[C@@H]3O[C@@H]5CO[C@@H](C)O[C@H]5[C@H](O)[C@H]3O)[C@H]3COC(=O)[C@H]23)OCO4)cc(OC)c1O [Etoposide] | more sensitive | – | 2.2 | 78.9 | 83.9 | 9.56 | 9.31 | 1.3 | more sensitive | 621 | 148 | 0.611 | 0.241 | – | – | – | – | – | – | – | IC50 [2, 9]: 76.5 µM; IC50 [2, 10]: 63 µM; IC50 [2, 11]: 10 µM; IC50 [2, 12]: 9.64 µM; EC50 ([1]; Homo sapiens, MCF7, prohibitin (siRNA) transfected, read-out: EC50, Prohibitin): 7.28 µM
3 | CC[C@]1(O)C[C@H]2CN(CCc3c([nH]c4ccccc34)[C@@](C(=O)OC)(c3cc4c(cc3OC)N(C=O)[C@H]3[C@@](O)(C(=O)OC)[C@H](OC(C)=O)[C@]5(CC)C=CCN6CC[C@]43[C@@H]65)C2)C1 [Vincristin] | – | 0.35 | 2.1 | 2.85 | 1.49 | 0.0123 | 0.0124 | 12.5 | – | 3.75 | 3.58 | 0.00317 | 0.00253 | 0.837 | 18.6 | 0.0043 | 3.4 | increased sensitivity | 1.4 | – | fold change of EC50, Prohibitin vs Control [2, 19]: 2.9 x; sensitivity to drug of prohibitin siRNA treated cells compared to mock controls ([2]; FIGS. 14A-14H): more sensitive; change in sensitivity to the drug, Prohibitin vs Control [1]: IR (IR: “increased in resistance” to the drug)
4 | S=P(N1CC1)(N1CC1)N1CC1 [Thiotepa] | – | – | – | 600 | 510 | 146 | 159 | 1.7 | more sensitive | 35000 | 16500 | 24.9 | 13.9 | – | – | – | 1.3 | increased sensitivity | 1.2 | increased the sensitivity | IC50 [2, 20]: 628 µM; IC50 [2, 9]: 475 µM; IC50 [2, 10]: 291 µM; IC50 [2, 21]: 527 µM; IC50 [2, 11]: 97.1 µM; IC50 [2, 12]: 164 µM; fold change of EC50, Prohibitin vs Control [2, 22]: 1.2 x; fold change of EC50, Prohibitin vs Control [2, 23]: 1.5 x; sensitivity to drug of prohibitin siRNA treated cells compared to mock controls ([2]; FIGS. 12A-12D): increased sensitivity
5 | CC[C@]1(O)C[C@@H]2CN(CCc3c([nH]c4ccccc34)[C@@](C(=O)OC)(c3cc4c(cc3OC)N(C)[C@H]3[C@@](O)(C(=O)OC)[C@H](OC(C)=O)[C@]5(CC)C=CCN6CC[C@]43[C@@H]65)C2)C1 [Vinblastin] | – | – | – | – | – | – | – | – | – | – | – | – | – | – | – | – | – | – | – | – | EC50 [2, 24]: 0.157 µM; EC50 [2, 25]: 2.55 µM
6 | COc1cccc2c1C(=O)c1c(O)c3c(c(O)c1C2=O)C[C@@](O)(C(=O)CO)C[C@@H]3O[C@H]1C[C@H](N)[C@H](O)[C@H](C)O1 [Doxorubicin] | more sensitive | 0.03 | – | 0.00146 | 0.000873 | 0.000232 | 0.000177 | – | – | 21.3 | 0.0265 | 0.0128 | 1.23e-05 | 0.00173 | 0.00125 | 0.000139 | – | – | – | increased sensitivity | IC50 [2, 24]: 0.00175 µM; IC50 [2, 20]: 0.00225 µM; EC50 [2, 25]: 0.000993 µM; EC50 [2, 21]: 0.00172 µM; sensitivity to drug of prohibitin siRNA treated cells compared to controls ([2]; FIG. 11A): increased sensitivity; sensitivity to drug of prohibitin siRNA treated cells compared to mock controls ([2]; FIGS. 14A-14H): more sensitive
7 | N.N.[Cl][Pt][Cl] [Cisplatinum] | – | 151 | 1.3 | – | – | – | – | 1.4 | more sensitive | – | – | 26.3 | 68.8 | 189 | 271 | 57 | 1.2 | increased sensitivity | 1.4 | increased sensitivity | EC50 [2, 5]: 255 µM; EC50 [2, 6]: 374 µM; EC50 [2, 24]: 94.3 µM; EC50 [2, 20]: 164 µM; EC50 [2, 7]: 76.8 µM; EC50 [2, 8]: 29.3 µM; EC50 [2, 25]: 124 µM; EC50 [2, 21]: 189 µM; EC50 [2, 11]: 54.5 µM; fold change of EC50, Prohibitin vs Control ([2]; Table 5 experiment, direction IS/IR in same cell (E18)): 1.3 x; fold change of EC50, Prohibitin vs Control [2, 22]: 1.1 x; fold change of EC50, Prohibitin vs Control [2, 23]: 1.4 x; fold change of EC50, Prohibitin vs Control [2, 19]: 1.9 x; EC50 ([1]; mock-transfected control, read-out: EC50, Control): 118 µM; change in sensitivity to the drug, Prohibitin vs Control [1]: IR (IR: “increased in resistance” to the drug); EC50 [3, 14]: 22.4 µM; EC50 [3, 15]: 50 µM

— patent US20070122830A1, “Prohibitin-directed diagnostics and therapeutics for cancer and chemotherapeutic drug resistance” (Aurelium BioPharma Inc., priority 2005, published 2007)
